Columns and labels:
surinam grass = test: Test B pre/postemergence surinam grass; assay type: in vivo, Brachiaria decumbens; details: for B. signalgrass plant response rating: scale of 0 to 10 where 0 is no effect and 10 is complete control
In short: (§1)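 Herbicidal effect was estimated by eye on a ten-point control scale after plants spent twelve to sixteen days in a greenhouse following soil or foliar treatment. Foliar sprays targeted plants at one to four leaves; all doses were formulated in a non-phytotoxic solvent with surfactant.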

corn = test: Test B pre/postemergence corn; assay type: in vivo, Zea mays; details: for Corn plant response rating: scale of 0 to 10 where 0 is no effect and 10 is complete control
In short: as §1

velvetleaf = test: Test B pre/postemergence velvetleaf; assay type: in vivo, Abutilon theophrasti; details: for Velvetleaf plant response rating: scale of 0 to 10 where 0 is no effect and 10 is complete control
In short: as §1

rice = test: Test B flood test rice; assay type: in vivo, Oryza sativa
In short: (§2)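 Read-out is a visual response score from 0 (no effect) to 10 (complete control), assigned by comparison with untreated controls. Treatment was applied at the 2-leaf stage, and plants stayed in the greenhouse for twelve to sixteen days before scoring.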

cocklebur = test: Test B pre/postemergence cocklebur; assay type: in vivo, Xanthium strumarium; details: for Cocklebur plant response rating: scale of 0 to 10 where 0 is no effect and 10 is complete control
In short: as §1

giant foxtail = test: Test B pre/postemergence giant foxtail; assay type: in vivo, Setaria faberii; details: for Giant foxtail plant response rating: scale of 0 to 10 where 0 is no effect and 10 is complete control
In short: as §1

morningglory = test: Test B pre/postemergence morningglory; assay type: in vivo, Ipomoea hederacea; details: for Morningglory plant response rating: scale of 0 to 10 where 0 is no effect and 10 is complete control
In short: as §1

sugar beet = test: Test B pre/postemergence sugar beet; assay type: in vivo, Beta vulgaris; details: for Sugarbeets plant response rating: scale of 0 to 10 where 0 is no effect and 10 is complete control
In short: as §1

blackgrass = test: Test B pre/postemergence blackgrass; assay type: in vivo, Alopecurus myosuroides; details: for Blackgrass plant response rating: scale of 0 to 10 where 0 is no effect and 10 is complete control
In short: as §1

wild oat = test: Test B pre/postemergence wild oat; assay type: in vivo, Avena fatua; details: for Wild oats plant response rating: scale of 0 to 10 where 0 is no effect and 10 is complete control
In short: as §1

smallflower flatsedge = test: Test B flood test smallflower flatsedge; assay type: in vivo, Cyperus difformis
In short: as §2

rape = test: Test B pre/postemergence rape; assay type: in vivo, Brassica napus; details: for Rape plant response rating: scale of 0 to 10 where 0 is no effect and 10 is complete control
In short: as §1

wheat = test: Test B pre/postemergence wheat; assay type: in vivo, Triticum aestivum; details: for Wheat plant response rating: scale of 0 to 10 where 0 is no effect and 10 is complete control
In short: as §1

pigweed = test: Test B pre/postemergence pigweed; assay type: in vivo, Amaranthus retroflexus; details: for Redroot pigweed plant response rating: scale of 0 to 10 where 0 is no effect and 10 is complete control
In short: as §1

soybean = test: Test B pre/postemergence soybean; assay type: in vivo, Glycine max; details: for Soybean plant response rating: scale of 0 to 10 where 0 is no effect and 10 is complete control
In short: as §1

bedstraw = test: Test B pre/postemergence bedstraw; assay type: in vivo, Galium aparine; details: Preemergence
In short: as §1

[1] = Postemergence, Rate 125 g/ha, scale 0 to 10, 0 is no effect, 10 is complete control
[2] = Postemergence, Rate 250 g/ha, scale 0 to 10, 0 is no effect, 10 is complete control
[3] = Preemergence, Rate 62 g/ha, scale 0 to 10 (0 no effect, 10 complete control)
[4] = Rate 500 g/ha, Postemergence, scale 0 to 10, 0 no effect, 10 complete control
[5] = Rate 62 g/ha, flood test species, Pre-emergence, visual evaluation after twelve to sixteen days
[6] = Rate 125 g/ha, under heading Pre-emergence, flood test species, visual evaluation after twelve to sixteen days
[7] = Rate 250 g/ha, Pre-emergence, flood-test species, scale 0 to 10, 0 is no effect, 10 is complete control
[8] = Rate 500 g/ha, Pre-emergence, flood test species, scale 0 to 10 (0 no effect, 10 complete control)

SMILES: Cc1nsc(Cl)c1Cn1c(=O)on(C(=O)N(c2ccc(F)cc2)C(C)C)c1=O [Compound 373]
- Plant response rating, B. signalgrass (surinam grass; [1]): 0
- Plant response rating, B. signalgrass (surinam grass; [2]): 0
- Plant response rating, B. signalgrass (surinam grass; [3]): 0
- B. signalgrass plant response rating (0 to 10 scale, 0 is no effect, 10 is complete control) (surinam grass; Preemergence, Rate 125 g/ha): 0
- B. signalgrass plant response rating (surinam grass; Preemergence, Rate 250 g/ha): 0
- B. signalgrass plant response rating (surinam grass; Preemergence, Rate 500 g/ha): 2
- B. signalgrass plant response rating (surinam grass; Rate 62 g/ha, Postemergence): 0
- Plant response rating, B. signalgrass (surinam grass; [4]): 0
- Plant response rating, Corn (corn; [1]): 0
- Plant response rating, Corn (corn; [2]): 0
- Plant response rating, Corn (corn; [3]): 0
- Corn plant response rating (0 to 10 scale) (corn; Preemergence, Rate 125 g/ha): 0
- Corn plant response rating (corn; Preemergence, Rate 250 g/ha): 3
- Corn plant response rating (corn; Preemergence, Rate 500 g/ha): 3
- Corn plant response rating (corn; Rate 62 g/ha, Postemergence): 0
- Plant response rating, Corn (corn; [4]): 0
- Plant response rating, Velvetleaf (velvetleaf; [1]): 0
- Plant response rating, Velvetleaf (velvetleaf; [2]): 1
- Plant response rating, Velvetleaf (velvetleaf; [3]): 0
- Velvetleaf plant response rating (0 to 10 scale) (velvetleaf; Preemergence, Rate 125 g/ha): 0
- Velvetleaf plant response rating (velvetleaf; Preemergence, Rate 250 g/ha): 0
- Velvetleaf plant response rating (velvetleaf; Preemergence, Rate 500 g/ha): 0
- Velvetleaf plant response rating (velvetleaf; Rate 62 g/ha, Postemergence): 0
- Plant response rating, Velvetleaf (velvetleaf; [4]): 2
- Plant response rating, Rice (0 to 10 scale, 0 is no effect, 10 is complete control) (rice; [5]): 0
- Rice plant response rating (0 to 10 scale, 0 is no effect, 10 is complete control) (rice; [6]): 0
- Rice plant response rating (rice; [7]): 0
- Rice plant response rating (rice; [8]): 0
- Plant response rating, Cocklebur (cocklebur; [1]): 1
- Plant response rating, Cocklebur (cocklebur; [2]): 2
- Plant response rating, Cocklebur (cocklebur; [3]): 0
- Cocklebur plant response rating (0 to 10 scale) (cocklebur; Preemergence, Rate 125 g/ha): 0
- Cocklebur plant response rating (cocklebur; Preemergence, Rate 250 g/ha): 0
- Cocklebur plant response rating (cocklebur; Preemergence, Rate 500 g/ha): 0
- Cocklebur plant response rating (cocklebur; Rate 62 g/ha, Postemergence): 0
- Plant response rating, Cocklebur (cocklebur; [4]): 2
- Plant response rating, Giant foxtail (giant foxtail; [1]): 3
- Plant response rating, Giant foxtail (giant foxtail; [2]): 3
- Plant response rating, Giant foxtail (giant foxtail; [3]): 8
- Giant foxtail plant response rating (0 to 10 scale) (giant foxtail; Preemergence, Rate 125 g/ha): 8
- Giant foxtail plant response rating (giant foxtail; Preemergence, Rate 250 g/ha): 10
- Giant foxtail plant response rating (giant foxtail; Preemergence, Rate 500 g/ha): 10
- Giant foxtail plant response rating (giant foxtail; Rate 62 g/ha, Postemergence): 0
- Plant response rating, Giant foxtail (giant foxtail; [4]): 6
- Plant response rating, Morningglory (morningglory; [1]): 8
- Plant response rating, Morningglory (morningglory; [2]): 8
- Plant response rating, Morningglory (morningglory; [3]): 0
- Morningglory plant response rating (0 to 10 scale) (morningglory; Preemergence, Rate 125 g/ha): 0
- Morningglory plant response rating (morningglory; Preemergence, Rate 250 g/ha): 0
- Morningglory plant response rating (morningglory; Preemergence, Rate 500 g/ha): 1
- Morningglory plant response rating (morningglory; Rate 62 g/ha, Postemergence): 8
- Plant response rating, Morningglory (morningglory; [4]): 8
- Plant response rating, Sugarbeets (sugar beet; [1]): 0
- Plant response rating, Sugarbeets (sugar beet; [2]): 1
- Plant response rating, Sugarbeets (sugar beet; [3]): 0
- Sugarbeets plant response rating (0 to 10 scale) (sugar beet; Preemergence, Rate 125 g/ha): 0
- Sugarbeets plant response rating (sugar beet; Preemergence, Rate 250 g/ha): 4
- Sugarbeets plant response rating (sugar beet; Preemergence, Rate 500 g/ha): 7
- Sugarbeets plant response rating (sugar beet; Rate 62 g/ha, Postemergence): 0
- Plant response rating, Sugarbeets (sugar beet; [4]): 4
- Plant response rating, Blackgrass (blackgrass; [1]): 0
- Plant response rating, Blackgrass (blackgrass; [2]): 0
- Plant response rating, Blackgrass (blackgrass; [3]): 1
- Blackgrass plant response rating (0 to 10 scale) (blackgrass; Preemergence, Rate 125 g/ha): 3
- Blackgrass plant response rating (blackgrass; Preemergence, Rate 250 g/ha): 5
- Blackgrass plant response rating (blackgrass; Preemergence, Rate 500 g/ha): 7
- Blackgrass plant response rating (blackgrass; Rate 62 g/ha, Postemergence): 0
- Plant response rating, Blackgrass (blackgrass; [4]): 0
- Plant response rating, Wild oats (wild oat; [1]): 0
- Plant response rating, Wild oats (wild oat; [2]): 0
- Plant response rating, Wild oats (wild oat; [3]): 0
- Wild oats plant response rating (0 to 10 scale) (wild oat; Preemergence, Rate 125 g/ha): 0
- Wild oats plant response rating (wild oat; Preemergence, Rate 250 g/ha): 0
- Wild oats plant response rating (wild oat; Preemergence, Rate 500 g/ha): 0
- Wild oats plant response rating (wild oat; Rate 62 g/ha, Postemergence): 0
- Plant response rating, Wild oats (wild oat; [4]): 0
- Plant response rating, S. Flatsedge (0 to 10 scale, 0 is no effect, 10 is complete control) (smallflower flatsedge; [5]): 0
- S. Flatsedge plant response rating (0 to 10 scale, 0 is no effect, 10 is complete control) (smallflower flatsedge; [6]): 0
- S. Flatsedge plant response rating (smallflower flatsedge; [7]): 0
- S. Flatsedge plant response rating (smallflower flatsedge; [8]): 0
- Plant response rating, Rape (rape; [1]): 1
- Plant response rating, Rape (rape; [2]): 2
- Plant response rating, Rape (rape; [3]): 0
- Rape plant response rating (0 to 10 scale) (rape; Preemergence, Rate 125 g/ha): 0
- Rape plant response rating (rape; Preemergence, Rate 250 g/ha): 0
- Rape plant response rating (rape; Rate 62 g/ha, Postemergence): 0
- Plant response rating, Rape (rape; [4]): 5
- Plant response rating, Wheat (wheat; [1]): 0
- Plant response rating, Wheat (wheat; [2]): 0
- Plant response rating, Wheat (wheat; [3]): 0
- Wheat plant response rating (0 to 10 scale) (wheat; Preemergence, Rate 125 g/ha): 0
- Wheat plant response rating (wheat; Preemergence, Rate 250 g/ha): 0
- Wheat plant response rating (wheat; Preemergence, Rate 500 g/ha): 0
- Wheat plant response rating (wheat; Rate 62 g/ha, Postemergence): 0
- Plant response rating, Wheat (wheat; [4]): 0
- Plant response rating, Redroot pigweed (pigweed; [1]): 3
- Plant response rating, Redroot pigweed (pigweed; [2]): 4
- Plant response rating, Redroot pigweed (pigweed; [3]): 0
- Redroot pigweed plant response rating (0 to 10 scale) (pigweed; Preemergence, Rate 125 g/ha): 3
- Redroot pigweed plant response rating (pigweed; Preemergence, Rate 250 g/ha): 7
- Redroot pigweed plant response rating (pigweed; Preemergence, Rate 500 g/ha): 10
- Redroot pigweed plant response rating (pigweed; Rate 62 g/ha, Postemergence): 2
- Plant response rating, Redroot pigweed (pigweed; [4]): 6
- Plant response rating, Soybean (soybean; [1]): 3
- Plant response rating, Soybean (soybean; [2]): 4
- Plant response rating, Soybean (soybean; [3]): 0
- Soybean plant response rating (0 to 10 scale) (soybean; Preemergence, Rate 125 g/ha): 0
- Soybean plant response rating (soybean; Preemergence, Rate 250 g/ha): 0
- Soybean plant response rating (soybean; Preemergence, Rate 500 g/ha): 2
- Soybean plant response rating (soybean; Rate 62 g/ha, Postemergence): 3
- Plant response rating, Soybean (soybean; [4]): 4
- Plant response rating, Bedstraw (bedstraw; Rate 62 g/ha, scale 0 to 10 (0 no effect, 10 complete control)): 0
- Bedstraw plant response rating (0 to 10 scale) (bedstraw; Rate 125 g/ha): 0
- Bedstraw plant response rating (bedstraw; Rate 500 g/ha, scale of 0 to 10 where 0 is no effect and 10 is complete control): 0
